Experimental data: patent EP4800018A1, “PAN-KRAS INHIBITOR AND USE THEREOF IN MEDICINES” (Betta Pharmaceuticals Co., Ltd., priority 2023, dated 2025)

Tests used:
[1] = test system: KRAS-G12V mutant tumor cells SW620; assay: Cell Proliferation Inhibition Assay (SW620), Cell-titer GLO, 96 h; format: cell-based; conditions: Homo sapiens, SW-620, 96 h, SW620 cells, 96 h incubation, Cell-titer GLO; read-out: SW620(G12V)
Protocol: (§1) KRAS-G12V mutant tumor cells SW620 were seeded in low-attachment 96-well plates at a cell density of 1×10^3 cells/well and cultured overnight in a cell culture incubator. After the cells adhered, the test compounds were added to the 96-well plates at final concentrations of 10000, 2000, 400, 80, 16, 3.2, 0.64, 0.13, 0.03, 0 nM (final concentration of DMSO was 0.5% for all). After incubation at 37°C for 96 h, 50 µL of Cell-titer GLO working solution was added to each well, mixed by shaking, incubated at room temperature for 10 min, and the Luminescence value was read on a multi-function microplate reader. The luminescence data were calculated and converted into inhibition percent. The inhibition percent of cell proliferation was calculated according to the following formula: Inhibition Percent = (MaxValue−MeasuredValue)/(MaxValue−Blank) × 100% [formula]
("Max Value" comes from the 0.5% DMSO control well, "Blank" comes from the blank control well, and "Measured Value" comes from the compound-treated well).
Curve fitting was performed using GraphPad Prism software to obtain IC50 values, see Table 1.

[2] = test system: KRAS-G12D mutant tumor cells AGS; assay: Cell Proliferation Inhibition Assay (AGS), Cell-titer GLO, 96 h; format: cell-based; conditions: Homo sapiens, AGS, 96 h, AGS cells, 96 h incubation, Cell-titer GLO; read-out: AGS(G12D)
Protocol: as §1, with “KRAS-G12D” for “KRAS-G12V”, “AGS” for “SW620”, “After the cells adhered, the test compounds were added to the 96-well plates at final concentrations of 10000, 2000, 400, 80, 16, 3.2, 0.64, 0.13, 0.03, 0 nM (final concentration of DMSO was 0.5% for all).” left out, “[formula] […] Curve fitting was performed using GraphPad Prism software to obtain IC50 values, see Table 1.” for “[formula]”

Row | SMILES | IC50 [1] | IC50 [2]
1 | C[C@@H]1OCCCn2c(c3c4cc(ccc42)-c2csc(n2)C[C@H](NC(=O)[C@H]2C[C@@H]2C(F)F)C(=O)N2CCC[C@H](N2)C(=O)OCC(C)(C)C3)-c2cc(N3CCOC(C)(C)C3)cnc21 [Example 153, (1S,2S)-2-(difluoromethyl)-N-((1^5S,6^3S,4S,Z)-1^2-(2,2-dimethylmorpholino)-1^5,10,10-trimethyl-5 ,7-dioxo-1^8,1^9,6^1,6^2,6^3,6^4,6^5,6^6-octahydro-1^5H,^17H-8-oxa-1(13,15)-pyrido[3',2':7,8][1,5]oxazonino[5,6-a]indola-2(4,2)-thiazola-6(1,3)-pyridazinacycloundecaphane-4-yl)cyclopropane-1-carboxamide] | 0.28 nM | 1.33 nM
2 | C[C@@H]1OCCCn2c(c3c4cc(ccc42)-c2csc(n2)C[C@H](NC(=O)[C@H]2C[C@@H]2C(F)F)C(=O)N2CCC[C@H](N2)C(=O)OCC(C)(C)C3)-c2cc(N3C[C@@H]4C[C@H]3CN4C)cnc21 [Example 155, (1S,2S)-2-(difluoromethyl)-N-((1^5S,6^3S,4S,Z)-1^5,10,10-trimethyl-1^2-((1S,4S)-5-methyl-2,5-diazabicyclo[2.2.1]heptan-2-yl)-5,7-dioxo-1^8,1^9,6^1,6^26^3,6^4,6^5,6^6-octahydro-1^5H,1^7H-8-oxa-1(13,15)-pyrido[3',2':7,8][1,5]oxazonino[5,6-a]indola-2(4,2)-thiazola-6(1,3)-pyridazinacycloundecaphane-4-yl)cyclopropane-1-carboxamide] | 0.62 nM | 1.38 nM
3 | C[C@@H]1OCCCn2c(c3c4cc(ccc42)-c2csc(n2)C[C@H](NC(=O)[C@H]2C[C@@H]2C(F)F)C(=O)N2CCC[C@H](N2)C(=O)OCC(C)(C)C3)-c2cc(OC[C@@H]3CCCCN3C)cnc21 [Example 156, (1S,2S)-2-(difluoromethyl)-N-((1^5S,6^3S,4S,Z)-1^5,10,10-trimethyl-1^2-(((S)-1-methylpiperidin-2-yl)methoxy)-5,7-dioxo-1^8,1^9,6^1,6^26^36^4,6^5,6^6-octahydro-1^5H,1^7H-8-oxa-1(13,15)-pyrido[3',2':7,8][1,5]oxazonino[5,6-a]indola-2(4,2)-thiazola-6(1,3)-pyridazinacycloundecaphane-4-yl)cyclopropane-1-carboxamide] |  | 8.27 nM
4 | C[C@@H]1OCCCn2c(c3c4cc(ccc42)-c2csc(n2)C[C@H](NC(=O)[C@H]2C[C@@H]2C(F)F)C(=O)N2CCC[C@H](N2)C(=O)OCC(C)(C)C3)-c2cc(OCCN3CCOCC3)cnc21 [Example 157, (1S,2S)-2-(difluoromethyl)-N-((1^5S,6^3S,4S,Z)-1^5,10,10-trimethyl-1^2-(2-morpholinoethoxy)-5,7-dioxo-1^8,1^9,6^1,6^2,6^3,6^4,6^5,6^6-octahydro-1^5H,1^7H-8-oxa-1(13,15)-pyrido[3',2':7,8][1,5]oxazonino[5,6-a]indola-2(4,2)-thiazola-6(1,3)-pyridazinacycloundecaphane-4-yl)cyclopropane-1-carboxamide] | 0.58 nM | 3.31 nM
5 | C[C@@H]1OCCCn2c(c3c4cc(ccc42)-c2csc(n2)C[C@H](NC(=O)[C@H]2C[C@@H]2C(F)F)C(=O)N2CCC[C@H](N2)C(=O)OCC(C)(C)C3)-c2cc(N(C)C3CCN(C)C3)cnc21 (stereo partly drawn) [Example 160, (1S,2S)-2-(difluoromethyl)-N-((1^5S,6^3S,4S,Z)-1^5,10,10-trimethyl-1^2-(methyl(1-methylpyrrolidin-3-yl)amino)-5,7-dioxo-1^8,1^9,6^1,6^2,6^3,6^4,6^5,6^6-octahydro-1^5H,1^7H-8-oxa-1(13,15)-pyrido[3',2':7,8][1,5]oxazonino[5,6-a]indola-2(4,2)-thiazola-6(1,3)-pyridazinacycloundecaphane-4-yl)cycloprop ane-1-carboxamide] | 0.98 nM | 2.25 nM
6 | CCN1CCN(c2cnc3c(c2)-c2c4c5cc(ccc5n2CCCOC3C)-c2csc(n2)CC(NC(=O)C2C3COCC32)C(=O)N2CCCC(N2)C(=O)OCC(C)(C)C4)CC1 [Example 162, (3R,4r,5S)-N-((1^5S,6^3S,4S,Z)-1^2-(4-ethylpiperazin-1-yl)-1^5,10,10-trimethyl-5,7-dioxo-1^8,1^9,6^1,6^2 ,6^3,6^4,6^5,6^6-octahydro-1^5H,1^7H-8-oxa-1(13,15)-pyrido[3',2':7,8][1,5]oxazonino[5,6-a]indola-2(4, 2)-thiazola-6(1,3)-pyridazinacycloundecaphane-4-yl)tetrahydro-2H-pyran-4-carboxamide] |  | 1.08 nM
7 | C[C@@H]1OCCCn2c(c3c4cc(ccc42)-c2csc(n2)C[C@H](NC(=O)[C@H]2C[C@@H]2C(F)F)C(=O)N2CCC[C@H](N2)C(=O)OCC(C)(C)C3)-c2cc(N3C[C@@H]4CCN(C)[C@@H]4C3)cnc21 [Example 163, (1S,2S)-2-(difluoromethyl)-N-((1^5S,6^3S,4S,Z)-1^5,10,10-trimethyl-1^2-((3aS,6aS)-1-methylhexahydropyrrolo[3,4-b]pyrrol-5(1H)-yl)-5,7-dioxo-1^8,1^9,6^1,6^2,6^3,6^4,6^5,6^6-octahydro-1^5H,1^7H-8-oxa-1(1 3,15)-pyrido[3',2':7,8][1,5]oxazonino[5,6-a]indola-2(4,2)-thiazola-6(1,3)-pyridazinacycloundecaphane-4-yl)cyclopropane-1-carboxamide] | 0.2 nM | 1.44 nM
8 | C[C@@H]1[C@H](C)[C@H]1C(=O)N[C@H]1Cc2nc(cs2)-c2ccc3c(c2)c(c2n3CCCO[C@@H](C)c3ncc(N4C[C@@H](C)O[C@@H](C)C4)cc3-2)CC(C)(C)COC(=O)[C@@H]2CCCN(N2)C1=O [Example 166, (1r,2R,3S)-N-((1^5S,6^3S,4S,Z)-1^2-((2S,6R)-2,6-dimethylmorpholino)-1^5,10,10-trimethyl-5,7-dioxo-1^8,1^9,6^1,6^2,6^3,6^4,6^5,6^6-octahydro-1^5H,1^7H-8-oxa-1(13,15)-pyrido[3',2':7,8][1,5]oxazonino[5,6-a]indola-2(4,2)-thiazola-6(1,3)-pyridazinacycloundecaphane-4-yl)-2,3-dimethylcyclopropane-1-ca rboxamide] | 0.14 nM | 0.36 nM
9 | C[C@@H]1[C@H](C)[C@H]1C(=O)N[C@H]1Cc2nc(cs2)-c2ccc3c(c2)c(c2n3CCCO[C@@H](C)c3ncc(CN4CCOCC4)cc3-2)CC(C)(C)COC(=O)[C@@H]2CCCN(N2)C1=O [Example 194, (1r,2R,3S)-2,3-dimethyl-N-((1^5S,6^3S,4S,Z)-1^5,10,10-trimethyl-1^2-(morpholinomethyl)-5,7-dioxo-1^8,1^9,6^1,6^2,6^3,6^4,6^5,6^6-octahydro-1^5H,1^7H-8-oxa-1(13,15)-pyrido[3',2':7,8][1,5]oxazonino[5,6-a]indola-2(4,2)-thiazola-6(1,3)-pyridazinacycloundecaphane-4-yl)cyclopropane-1-carboxamide] | 1.4 nM | 3 nM
10 | CC1OCCCn2c(c3c4cc(ccc42)-c2csc(n2)CC(NC(=O)C2C(C)C2C)C(=O)N2NC(C(=O)OCC(C)(C)C3)C3CC2C3)-c2cc(N3CCN(C)CC3)nnc21 [Example 195, (1r,2R,3S)-2,3-dimethyl-N-((1^5S,6^4S,4S,Z)-1^5,10,10-trimethyl-1^2-(4-methylpiperazin-1-yl)-5,7-dioxo-1^8,1^9-dihydro-1^5H,1^7H-8-oxa-6^2,6^3-diaza-1(13,15)-pyridazino[4',3':7,8][1,5]oxazonino[5,6-a]indola-2(4,2)-thiazola-6(2,4)-bicyclo[3.1.1]heptanacycloundecaphane-4-yl)cyclopropane-1-car boxamide] | 0.06 nM | 0.6 nM
11 | CC1OCCCn2c(c3c4cc(ccc42)-c2csc(n2)CC(NC(=O)C2COC2)C(=O)N2NC(C(=O)OCC(C)(C)C3)C3CC2C3)-c2cc(N3CCN(C)CC3)cnc21 [Example 199, N-((1^5S,6^4S,4S,Z)-1^5,10,10-trimethyl-1^2-(4-methylpiperazin-1-yl)-5,7-dioxo-1^8,1^9-dihydro-1^5H, 1 ^7H-8-oxa-6^2,6^3-diaza-1(13,15)-pyrido[3',2':7,8][1,5]oxazonino[5,6-a]indola-2(4,2)-thiazola-6(2,4)-bicyclo[3.1.1]heptanacycloundecaphane-4-yl)oxetane-3-carboxamide] | 4.1 nM | 39 nM
12 | CCN1CCN(c2cnc3c(c2)-c2c4c5cc(ccc5n2C[C@@H](OC)CO[C@H]3C)-c2csc(n2)C[C@H](NC(=O)[C@H]2C[C@@H]2C)C(=O)N2CCC[C@H](N2)C(=O)OCC(C)(C)C4)CC1 [Example 203, (1S,2S)-N-((1^5S,1^8R,6^3S,4S,Z)-1^2-(4-ethylpiperazin-1-yl)-1^8-methoxy-1^5,10,10-trimethyl-5,7-dioxo-1^8,1^9,6^1,6^26^3,6^4,6^5,6^6-octahydro-1^5H,1^7H-8-oxa-1(13,15)-pyrido[3',2':7,8][1,5]oxazonino[5,6-a]indola-2(4,2)-thiazola-6(1,3)-pyridazinacycloundecaphane-4-yl)-2-methylcyclopropane-1-carb oxamide] | 3.3 nM | 2.1 nM
